Consider 13 compounds from patent publication US20210277015A1, “OGA INHIBITOR COMPOUNDS” (Janssen Pharmaceutica NV, priority 2018, published 2021).

In one test the target is T1, OGA (Homo sapiens, UniProt O60502).
T1 construct: endogenous in cells; host or cells: HEK293 cells inducible for P301L mutant human Tau (isoform 2N4R)
T1 sequence (O60502 1-916): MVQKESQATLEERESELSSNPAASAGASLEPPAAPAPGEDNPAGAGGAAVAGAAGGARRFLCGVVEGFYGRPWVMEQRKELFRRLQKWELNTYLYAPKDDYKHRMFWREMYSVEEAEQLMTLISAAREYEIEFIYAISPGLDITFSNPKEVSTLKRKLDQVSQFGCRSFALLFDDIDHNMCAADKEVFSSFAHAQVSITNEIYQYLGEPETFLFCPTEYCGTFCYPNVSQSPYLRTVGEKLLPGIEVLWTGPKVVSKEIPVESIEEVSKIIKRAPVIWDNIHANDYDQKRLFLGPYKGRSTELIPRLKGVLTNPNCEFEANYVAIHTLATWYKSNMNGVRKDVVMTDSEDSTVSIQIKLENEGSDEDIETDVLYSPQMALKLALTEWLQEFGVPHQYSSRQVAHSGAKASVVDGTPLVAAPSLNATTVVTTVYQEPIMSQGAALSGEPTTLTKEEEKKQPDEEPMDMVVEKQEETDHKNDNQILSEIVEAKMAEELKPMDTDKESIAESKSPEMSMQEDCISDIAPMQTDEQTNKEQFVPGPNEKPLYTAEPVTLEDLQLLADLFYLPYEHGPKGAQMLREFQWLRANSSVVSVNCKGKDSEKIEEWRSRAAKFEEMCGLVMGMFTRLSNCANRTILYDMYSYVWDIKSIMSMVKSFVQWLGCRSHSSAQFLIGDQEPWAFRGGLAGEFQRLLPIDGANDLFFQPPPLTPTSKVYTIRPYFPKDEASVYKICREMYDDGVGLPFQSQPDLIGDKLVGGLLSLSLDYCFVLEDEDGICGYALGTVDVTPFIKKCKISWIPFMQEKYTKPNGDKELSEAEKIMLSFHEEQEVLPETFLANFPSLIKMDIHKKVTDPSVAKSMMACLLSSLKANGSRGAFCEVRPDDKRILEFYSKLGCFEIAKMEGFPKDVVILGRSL
The test can be described thus: OGA cellular assay (ICC detection of O-GlcNAcylated proteins in HEK293 cells inducible for P301L mutant human Tau). Format: cell-based. As to conditions: for Emax: HEK293, HEK293 cells inducible for P301L mutant human Tau; for Emax / Cellular Emax (%): maximum defined by Thiamet G at 200 uM; for EC50: read-out: Cellular hOGA, pEC50 (converted). On the procedure:
HEK293 cells inducible for P301L mutant human Tau (isoform 2N4R) were established at Janssen. Thiamet-G was used for both plate validation (high control) and as reference compound (reference EC50 assay validation). OGA inhibition is evaluated through the immunocytochemical (ICC) detection of O-GlcNAcylated proteins by the use of a monoclonal antibody (CTD110.6; Cell Signaling, #9875) detecting O-GlcNAcylated residues as previously described (Dorfmueller et al. 2010 Chemistry & biology, 17:1250). Inhibition of OGA will result in an increase of O-GlcNAcylated protein levels resulting in an increased signal in the experiment. Cell nuclei are stained with Hoechst to give a cell culture quality control and a rough estimate of immediate compounds toxicity, if any. ICC pictures are imaged with a Perkin Elmer Opera Phenix plate microscope and quantified with the provided software Perkin Elmer Harmony 4.1.
Cells were propagated in DMEM high Glucose (Sigma, #D5796) following standard procedures. 2 days before the cell assay cells are split, counted and seeded in Poly-D-Lysine (PDL) coated 96-wells (Greiner, #655946) plate at a cell density of 12,000 cells per cm^2 (4,000 cells per well) in 100 μl of Assay Medium (Low Glucose medium is used to reduce basal levels of GlcNAcylation) (Park et al. 2014 The Journal of biological chemistry 289:13519). At the day of compound test medium from assay plates was removed and replenished with 90 μl of fresh Assay Medium. 10 μl of compounds at a 10 fold final concentration were added to the wells. Plates were centrifuged shortly before incubation in the cell incubator for 6 hours. DMSO concentration was set to 0.2%. Medium is discarded by applying vacuum. For staining of cells medium was removed and cells washed once with 100 μl D-PBS (Sigma, #D8537). From next step onwards unless other stated assay volume was always 50 μl and incubation was performed without agitation and at room temperature. Cells were fixed in 50 μl of a 4% paraformaldehyde (PFA, Alpha aesar, #043368) PBS solution for 15 minutes at room temperature. […] Before analysis samples were washed 2 times manually for 5 minutes in ICC base buffer.
Imaging is performed using Perkin Elmer Phenix Opera using a water 20× objective and recording 9 fields per well. Intensity readout at 488 nm is used as a measure of O-GlcNAcylation level of total proteins in wells. To assess potential toxicity of compounds nuclei were counted using the Hoechst staining. IC50-values are calculated using parametric non-linear regression model fitting. As a maximum inhibition Thiamet G at a 200 uM concentration is present on each plate. In addition, a concentration response of Thiamet G is calculated on each plate.

Test [1] addresses T2, recombinant human Meningioma Expressed Antigen 5 (MGEA5), also referred to as O-GlcNAcase (OGA) (Homo sapiens, UniProt O60502).
T2 construct: Full length OGA enzyme was purchased at OriGene (cat #TP322411); purchased OriGene TP322411
T2 sequence (O60502 1-916): T1 sequence (O60502 1-916)
The test can be described thus: OGA biochemical assay (inhibition of FM-GlcNAc hydrolysis, fluorescence). As to conditions: FM-GlcNAc substrate; for IC50: 6 h at room temperature, read-out: Enzymatic hOGA, pIC50 (converted); for Emax / Enzymatic Emax (%): maximal effect; for Emax: read-out: Enzymatic Emax (%). The source says: The assay is based on the inhibition of the hydrolysis of fluorescein mono-β-D-N-Acetyl-Glucosamine (FM-GlcNAc) (Mariappa et al. 2015, Biochem J 470:255) by the recombinant human Meningioma Expressed Antigen 5 (MGEA5), also referred to as O-GlcNAcase (OGA). The hydrolysis FM-GlcNAc (Marker Gene technologies, cat #M1485) results in the formation of β-D-N-glucosamineacetate and fluorescein. The fluorescence of the latter can be measured at excitation wavelength 485 nm and emission wavelength 538 nm. An increase in enzyme activity results in an increase in fluorescence signal. Full length OGA enzyme was purchased at OriGene (cat #TP322411). The enzyme was stored in 25 mM Tris.HCl, pH 7.3, 100 mM glycine, 10% glycerol at −20° C. Thiamet G and GlcNAcStatin were tested as reference compounds (Yuzwa et al. 2008 Nature Chemical Biology 4:483; Yuzwa et al. 2012 Nature Chemical Biology 8:393). The assay was performed in 200 mM Citrate/phosphate buffer supplemented with 0.005% Tween-20. 35.6 g Na2HPO4 2 H2O (Sigma, #C0759) were dissolved in 1 L water to obtain a 200 mM solution. 19.2 g citric acid (Merck, #1.06580) was dissolved in 1 L water to obtain a 100 mM solution. pH of the sodium phosphate solution was adjusted with the citric acid solution to 7.2. The buffer to stop the reaction consists of a 500 mM Carbonate buffer, pH 11.0. 734 mg FM-GlcNAc were dissolved in 5.48 mL DMSO to obtain a 250 mM solution and was stored at −20° C. OGA was used at a 2 nM concentration and FM-GlcNAc at a 100 uM final concentration. Dilutions were prepared in assay buffer.
50 nl of a compound dissolved in DMSO was dispensed on Black Proxiplate™ 384 Plus Assay plates (Perkin Elmer, #6008269) and 3 μl fl-OGA enzyme mix added subsequently. Plates were pre-incubated for 60 min at room temperature and then 2 μl FM-GlcNAc substrate mix added. […] Plates were briefly centrifuged for 1 min at 1000 rpm and incubate at room temperature for 6 h. To stop the reaction 5 μl STOP buffer were added and plates centrifuge again 1 min at 1000 rpm. Fluorescence was quantified in the Thermo Scientific Fluoroskan Ascent or the PerkinElmer EnVision with excitation wavelength 485 nm and emission wavelength 538 nm.
For analysis a best-fit curve is fitted by a minimum sum of squares method. From this an IC50 value and Hill coefficient was obtained. High control (no inhibitor) and low control (saturating concentrations of standard inhibitor) were used to define the minimum and maximum values.

[2] abbreviates: HEK293 cells inducible for P301L mutant human Tau, 6 hours incubation, ICC O-GlcNAcylation.
The mark [3] stands for this setting: HEK293 cells inducible for P301L mutant human Tau.

One may read the Emax as the greatest response seen or fitted, relative to the assay's reference.

`COc1cc(C[C@H]2CN(C(C)c3ccc4c(n3)OCCO4)C[C@@H]2C)cc(C)n1` (mixture of isomers) [Product 120] came in with a maximal response (Emax) on OGA of 36%. The EC50 on OGA (setting [2]) was above 1000 nM. In test [1], the IC50 was 158 nM and the Emax came out at 100%.
In the case of `COc1cc(C[C@H]2CCN(C(C)c3cc4c(cc3F)OCCO4)C2)cc(C)n1` (single isomer, unassigned) [Product 10], the EC50 on OGA (setting [2]) was above 1000 nM. For the same compound, the “Cellular Emax (%)” value at OGA (setting [3]) is reported as −5%. Moreover, in test [1], the IC50 was 1580 nM and the Emax stood at 88%.
With `COc1cc(C[C@H]2CCN(C(C)c3cc4c(cc3F)OCCO4)C2)cc(C)n1` (single isomer, unassigned) [Product 11], the EC50 on OGA (setting [2]) is 200 nM. For the same compound, the “Cellular Emax (%)” value on OGA (setting [3]) was found to be 83%. In addition, in test [1], the IC50 was 25.1 nM and the “Enzymatic Emax (%)” value is 102%.
Regarding `Cc1cc(C[C@H]2CCN([C@@H](C)c3ccc4c(c3)OCC4)C2)cc(C)n1` (single isomer, unassigned) [Product 14], the Emax at OGA was found to be 74%. For the same compound, the EC50 at OGA (setting [2]) was 126 nM. For the same compound, in test [1], the IC50 was 50.1 nM and the maximum response (Emax) came to 103%.
`Cc1cc(O[C@@H]2CCN(C(C)c3nc4c(cc3F)CCO4)C2)cc(C)n1` (single isomer, unassigned) [Product 18]: at OGA (setting [3]), the “Cellular Emax (%)” value is given as 42%. Also, in test [1], the IC50 is 158 nM and the maximum response (Emax) turned out to be 98%.
Consider `Cc1cc(O[C@@H]2CCN(C(C)c3nc4c(cc3F)CCO4)C2)cc(C)n1` (single isomer, unassigned) [Product 19], for which the EC50 on OGA (setting [2]) is 18.6 nM. Further, on OGA (setting [3]), the “Cellular Emax (%)” value is given as 94%. Moreover, in test [1], the IC50 is 1.58 nM and the “Enzymatic Emax (%)” value is on record as 97%.
For `CC(c1cc2c(cc1F)OCCO2)N1CC[C@H](Cc2ncc(F)cc2F)C1` (single isomer, unassigned) [Product 29], at OGA, the Emax was 35%. In addition, at OGA (setting [2]), the EC50 is above 1000 nM. Moreover, in test [1], the IC50 was 50.1 nM and the “Enzymatic Emax (%)” value came to 102%.
Take `Cc1cc(C[C@@H]2CCN(C(C)c3cnc4c(c3)OCCO4)C2)cc(C)n1` (single isomer, unassigned) [Product 35]: the EC50 at OGA (setting [2]) is above 1000 nM. Further, at OGA (setting [3]), the “Cellular Emax (%)” value is on record as −6%. In addition, in test [1], the IC50 is 7940 nM and the “Enzymatic Emax (%)” value is on record as 54%.
Turning to `Cc1cc(C[C@@H]2CCN(C(C)c3cnc4c(c3)OCCO4)C2)cc(C)n1` (single isomer, unassigned) [Product 36], the “Cellular hOGA; pEC50” value on OGA (setting [2]) was below 6. The “Cellular Emax (%)” value at OGA (setting [3]) is 15%. In test [1], the IC50 was 200 nM and the “Enzymatic Emax (%)” value is recorded as 99%.
In the case of `Cc1cc(O[C@@H]2CCN(C(C)c3nc4c(cc3F)OCCO4)C2)cc(C)n1` (single isomer, unassigned) [Product 40], the EC50 on OGA (setting [2]) was 158 nM. For the same compound, the “Cellular Emax (%)” value at OGA (setting [3]) is listed as 84%. In addition, in test [1], the IC50 was 7.94 nM and the Emax was 100%.
As for `Cc1cc(O[C@@H]2CCN(C(C)c3nc4c(cc3F)OCCO4)C2)cc(C)n1` (single isomer, unassigned) [Product 41], at OGA (setting [2]), the EC50 was above 1000 nM. Further, on OGA (setting [3]), the “Cellular Emax (%)” value is recorded as −13%. In test [1], the IC50 is 1580 nM and the “Enzymatic Emax (%)” value was found to be 87%.
In the case of `Cc1cc(C[C@@H]2CCN(C(C)c3nc4c(cc3F)OCCO4)C2)cc(C)n1` (single isomer, unassigned) [Product 51], the EC50 on OGA (setting [2]) was above 1000 nM. The “Cellular Emax (%)” value at OGA (setting [3]) turned out to be 8%. Also, in test [1], the IC50 was 398 nM and the Emax was determined as 96%.
For `Cc1cc(C[C@@H]2CCN(C(C)c3nc4c(cc3F)OCCO4)C2)cc(C)n1` (single isomer, unassigned) [Product 52], the EC50 on OGA (setting [2]) is 63.1 nM. In addition, on OGA (setting [3]), the “Cellular Emax (%)” value worked out at 80%. Also, in test [1], the IC50 is 6.31 nM and the “Enzymatic Emax (%)” value was determined as 101%.
